From the NIST ThermoML archive (doi:10.1016/j.tca.2016.01.003)
± gives the expanded uncertainty stated by the source.

Experiments:
[1] = Molar enthalpy of transition or fusion; settings: Crystal; DSC
[2] = Crystal; DTA

Molar enthalpy of transition or fusion [1]: 10.3 ± 0.239 kcal/mol
Normal melting temperature [2]: 303 ± 0.6 °C
SMILES: CN1C(=O)N[C@H]2NC(=O)N(C)[C@H]21
